Source: patent publication US6951840B2, “Lipoglycopeptide antibiotics” (priority 2001, dated 2005)
≈ marks a conversion by molar mass, not a printed value.

Legend:
[1] = system: Haemophilus influenzae ATCC 49247; experiment: Broth micro-dilution MIC, H. influenzae ATCC 49247; format: cell-based; conditions: ATCC49247, read-out: MIC, H. influenzae ATCC49247
Method: (§1) The in vitro antibacterial activity of lipoglycopeptides 1, 2, 5, 6, 7, and 8 is determined according to the National Committee for Clinical Laboratory Standards (NCCLS) recommendations for broth micro-dilution assay using 2xsTH (Todd Hewitt broth), MHII (cation adjusted Mueller Hinton broth) or HTM medium (Haemophilus Test Medium) (Gerhardt, P., et al., (1994) Methods for General and Molecular Bacteriology. American Society for Microbiology, Washington, D.C.). Bacterial strains used for antibacterial assay include both gram-positive and gram-negative bacteria: S. pneumoniae R6, Staphylococcus aureus SA027, Haemophilus influenzae ATCC 49247, E. coli EL683 and EL744. A two-fold serial dilution of the test compound is prepared in 100% DMSO. The assay is performed in the wells of a sterile 96-well microplate, that is inoculated with bacterial cell suspension in growth medium or broth as above. The final volume is 100 μl cell suspension, containing 2.5% DMSO. The starting concentration of bacterial cells is 5×10^5 CFU/ml. The 96-well microplate is incubated for 23-24 hr at 37° C. in an ambient air incubator. Upon completion of incubation, the MIC (minimal inhibitory concentration) is determined by visual examination of the microplate with the aid of a magnifying mirror apparatus. The MIC is the lowest concentration of compound tested that results in no visible sign of bacterial growth.

E. coli EL744 = experiment: Broth micro-dilution MIC, E. coli EL744; format: cell-based; conditions: Escherichia coli, MHII broth, 23-24 hr at 37° C.
Method: as §1

S. pneumoniae R6 = experiment: Broth micro-dilution MIC, S. pneumoniae R6; format: cell-based; conditions: 23-24 hr at 37° C.; for MIC: Streptococcus pneumoniae, R6, 2XsTH broth; for MIC, S. pneumoniae R6: 2XsTH broth
Method: as §1

E. coli SPase I [2] = target: T1, E. coli SPase I (Escherichia coli, UniProt P00803, I81L); experiment: Fluorimetric IC50 determination, E. coli signal peptidase; format: biochemical
T1 construct: His-tag (inferred from vector pET15b cloned at NdeI/XhoI and Ni-NTA purification); made in house; host or cells: E. coli BL21(DE3)
Method: Cloning and expression of the E. coli SPase I gene is performed by polymerase chain reaction (PCR) using E. coli genomic DNA as a template and two oligonucleotides as primers: 5′-[…]-3′ (SEQ ID NO: 1) and 5′-[…]-3′ (SEQ ID NO:2). The primers are designed to contain NdeI and XhoI restriction sites at the 5′-ends, respectively, to enable cloning into the bacterial expression vector pET15b (Novagen). The primers are synthesized based upon the published sequence of E. coli SPase I (Wolfe, et al. (1983) J. Biol. Chem. 258, 12073-12080).
Expression vector pET15b-E. coli SPase is constructed by replacing the NdeI/XhoI fragment of pET15b with the PCR fragment that is purified and digested with Ndel and XhoI. The identity of the cloned gene is confirmed by DNA sequencing. For expression of E. coli SPase I, E. coli strain BL21(DE3)(Stratagene) is transformed with pET15b-E. coli SPase, and grown and induced with 0.4 mM IPTG (isopropryl-1-thio-β-D-galactopyranoside) as described in Studier, et al. (1990) Methods Enzymol. 185, 60-89.
For purification of E. coli SPase T, one liter of IPTG-induced E. coli BL21(DE3) cells harboring pET15b-E coli SPase is harvested by centrifugation and re-suspended in 50 ml of lysis buffer containing 50 mM Na2HPO4, 300 mM NaCl, pH 8.0, and sonicated 5 min. on ice. The lysate is then centrifuged at 50,000 g for 1 hr at 4° C. The resultant supernatant is discarded, the pellet is re-suspended, and sonicated for 5 min. in 20 ml of lysis buffer containing 8 M urea. After centrifugation at 50,000 g for 1 hr at 4° C., the supernatant is loaded onto a 5 ml column of pre-equilibrated Ni-nitrilotriacetic acid (NTA) that is then washed with 120 ml of refolding buffer (50 mM NaH2PO4, 300 mM NaCl, 15 mM imidazole) containing a continuous urea gradient from 6 to 1 M with a flow rate of 1 ml/min. The protein is eluted with 20 ml of elution buffer (20 mM Tris-HCl, pH 8.0, 20% glycerol, 1 M urea and 100 mM imidazole), and 1 ml fractions are collected and utilized for enzyme assay.
(§2) “IC50” refers to the concentration of inhibitor required to achieve a half-maximal degree of inhibition of SPase I. The IC50 is determined by a fluorimetric assay as described in Peng, et al. (2001) J. Bacterol. 183, 621-627, with a fluorogenic peptide used as substrate as described therein. The reaction is performed in 50 μls of reaction mixture containing 50 nM of either E. coli or S. pneumoniae SPase I, 50 μM substrate, and a series dilution of inhibitor. Inhibitors are dissolved in dimethylsulfoxide (DMSO). Compounds in DMSO are diluted in reaction buffer. The final DMSO concentration in the reaction mixtures is 2% (v/v). Reaction mixtures are incubated at 37° C. for 1-2 hrs. The IC50 is calculated using a nonlinear regression method with GraphPad Prism™ Software (GraphPad G3-A13127-507). The inhibitory activity of lipoglycopeptides 1-8 against both E. coli and S. pneumoniae signal peptidases, are summarized in Table 7.
Target sequence in this assay (P00803 77-324 I81L): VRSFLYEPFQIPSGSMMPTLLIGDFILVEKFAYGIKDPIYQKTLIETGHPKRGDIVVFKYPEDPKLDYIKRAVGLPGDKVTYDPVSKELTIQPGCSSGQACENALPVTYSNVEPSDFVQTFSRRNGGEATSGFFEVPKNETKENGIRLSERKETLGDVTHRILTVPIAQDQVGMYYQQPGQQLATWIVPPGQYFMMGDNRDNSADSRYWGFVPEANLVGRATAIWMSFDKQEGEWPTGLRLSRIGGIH

E. coli EL683 = experiment: Broth micro-dilution MIC, E. coli EL683; format: cell-based; conditions: Escherichia coli, MHII broth, 23-24 hr at 37° C.
Method: as §1

[3] = system: Staphylococcus aureus SA027; experiment: Broth micro-dilution MIC, S. aureus SA027; format: cell-based; conditions: MHII broth, 23-24 hr at 37° C.
Method: as §1

S. pneumoniae SPase I = target: T2, S. pneumoniae SPase I (Streptococcus pneumoniae serotype 4, UniProt O07344); experiment: Fluorimetric IC50 determination, S. pneumoniae signal peptidase; format: biochemical; conditions: 50 nM SPase I, 50 μM fluorogenic substrate, 37° C., 1-2 hrs
T2 construct: made in house
T2 sequence (O07344 whole entry): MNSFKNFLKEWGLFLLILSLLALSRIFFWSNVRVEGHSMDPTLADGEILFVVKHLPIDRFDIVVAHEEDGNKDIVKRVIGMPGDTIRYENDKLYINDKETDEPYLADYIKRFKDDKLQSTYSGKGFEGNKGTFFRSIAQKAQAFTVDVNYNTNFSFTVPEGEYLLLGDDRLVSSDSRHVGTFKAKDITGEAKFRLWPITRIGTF
Method: Procedures for cloning, expression and purification of S. pneumoniae Spase can be found in reference (Peng, et al. (2001) J. Bacterol. 183, 621-627).
as §2

[4] = system: Staphylococcus aureus (ATCC 33592); experiment: Beta-lactamase release assay; format: cell-based; conditions: beta-lactamase-producing S. aureus ATCC 33592, 2 hr incubation with inhibitor
Method: In Staphylococcus aureus, signal peptidase cleaves beta-lactamase, resulting in the release of beta-lactaidase into the medium. In this example, the ability of lipoglycopeptides 1,2, and 5 to inhibit the release of beta-lactamase from Staphylococcus aureus into the medium is examined.
Staphylococcus aureus (ATCC 33592) cells are grown overnight in a series dilution in Brain Heart Infusion (BHI) (Gerhardt, P., et al., (1994) Methods for General and Molecular Bacteriology. American Society for Microbiology, Washington, D.C.) medium in a 37° C. incubator containing 5% CO2. Cultures with an OD660 less than 0.3 are centrifuged, and the cells are washed once with fresh BHI medium. The cells are then resuspended in fresh BHI medium to an initial OD660 of 0.15-0.2. At the same time, the selected inhibitor is diluted from the DMSO stock solution into BHI medium at different concentrations, and is added to the cells which are then incubated at 37° C. under 5% CO2 for 2 hr. The final DMSO concentration in the reaction mixtures is 1% (v/v). The OD660 is measured at the end of incubation. The cells are centrifuged, and the supernatant is saved for the determination of secreted beta-lactamase. The pellet is washed once with fresh BHI medium, re-suspended in the equivalent volume of fresh BHI medium, frozen, and then thawed […]. for three cycles, and used for the determination of retained beta-lactamase. For the determination of beta-lactamase activity, 100 μl reaction mixture (30-50 μls of supernatant or lysed cells) is incubated with 250 μM nitrocefin in 1×PBS buffer (phosphate buffered saline) (pH 6.8) at 37° C. for 30-60 min. Nitrocefin is the substrate for beta-lactamase. Cleavage of nitrocefin results in an increase in absorbance at 482 nm. The absorbance at 482 nm (OD482) is measured at the beginning and at the end of the reaction. The secreted and the retained beta-lactamase activities are calculated based upon the ΔOD482.

E. coli SPase I [5] = target: T1, E. coli SPase I; experiment: Kinetic analysis by HPLC assay with non-fluorogenic peptide substrate; format: biochemical
Method: A kinetic analysis is performed with E. coli SPase I and the non-fluorogenic peptide substrate by HPLC assay as described in Peng, et al. (2001) J. Bacterol. 183, 621-627. 50 μl of reaction volume contains 50 nM E. coli SPase I with different concentrations of substrate and lipoglycopepetide inhibitors. The reaction mixtures are incubated at room temperature for 30 mins., and terminated by the addition of an equal amount of 8 M urea. The final concentration of DMSO in the reaction mixtures is 2%. Substrate cleavage is analyzed by HPLC as described in Peng, et al. (2001) J. Bacterol. 183, 621-627. The initial rate, K1, and inhibition type of the inhibitor is calculated with Sigma Plot 2000, Version 6.2 with enzyme kinetics module (SPSS, Inc., Cat No. 3703564).

| SMILES | MIC [1] | MIC (E. coli EL744) | MIC (S. pneumoniae R6) | IC50 (E. coli SPase I [2]) | MIC (E. coli EL683) | MIC [3] | IC50 (S. pneumoniae SPase I) | inhibition of secretion of beta-lactamase [4] | MIC, S. pneumoniae R6 (S. pneumoniae R6) | Ki (E. coli SPase I [5]) |
| --- | --- | --- | --- | --- | --- | --- | --- | --- | --- | --- |
| CC(C)CCCCCCCCCCCCC(=O)N(C)C(CO)C(=O)NC(C)C(=O)NCC(=O)N(C)C1C(=O)NC(C)C(=O)NC(C(=O)O)Cc2ccc(O)c(c2)-c2cc1cc(O)c2OC1OC(C)C(O)C(O)C1O (stereo not shown) [Compound 1] | 64 µg/mL (≈ 61.3 µM) | 32 µg/mL (≈ 30.7 µM) | 16 µg/mL (≈ 15.3 µM) | 0.17 µM | 8 µg/mL (≈ 7.67 µM) | 32 µg/mL (≈ 30.7 µM) | 7.1 µM | inhibit the secretion of beta-lactamase | – | – |
| CCCCCCCCCCCCCCCC(=O)N(C)C(CO)C(=O)NC(C)C(=O)NCC(=O)N(C)C1C(=O)NC(C)C(=O)NC(C(=O)O)Cc2ccc(O)c(c2)-c2cc1cc(O)c2OC1OC(C)C(O)C(O)C1O (stereo not shown) [Compound 2] | 64 µg/mL (≈ 61.3 µM) | 32 µg/mL (≈ 30.7 µM) | 8 µg/mL (≈ 7.67 µM) | 0.19 µM | 8 µg/mL (≈ 7.67 µM) | 64 µg/mL (≈ 61.3 µM) | 10.3 µM | inhibit the secretion of beta-lactamase | 16 µg/mL (≈ 15.3 µM) | 0.158 µM |
| CC(C)CCCCCCCCCCCC(=O)N(C)C(CO)C(=O)NC(C)C(=O)NCC(=O)N(C)C1C(=O)NC(C)C(=O)NC(C(=O)O)Cc2ccc(O)c(c2)-c2cc1ccc2OC1OC(C)C(O)C(O)C1O (stereo not shown) [Compound 3] | – | – | – | 0.13 µM | – | – | 7 µM | – | – | – |
| CCCCCCCCCCCCCCC(=O)N(C)C(CO)C(=O)NC(C)C(=O)NCC(=O)N(C)C1C(=O)NC(C)C(=O)NC(C(=O)O)Cc2ccc(O)c(c2)-c2cc1ccc2OC1OC(C)C(O)C(O)C1O (stereo not shown) [Compound 4] | – | – | – | 0.13 µM | – | – | 5.9 µM | – | – | – |
| CC(C)CCCCCCCCCCCCC(=O)N(C)C(CO)C(=O)NC(C)C(=O)NCC(=O)N(C)C1C(=O)NC(C)C(=O)NC(C(=O)O)Cc2ccc(O)c(c2)-c2cc1ccc2OC1OC(C)C(O)C(O)C1O (stereo not shown) [Compound 5] | > 64 µg/mL | 16 µg/mL (≈ 15.6 µM) | 16 µg/mL (≈ 15.6 µM) | 0.13 µM | 4 µg/mL (≈ 3.89 µM) | > 64 µg/mL | 2.4 µM | inhibit the secretion of beta-lactamase | 8 µg/mL (≈ 7.79 µM) | 0.0575 µM |
| CCCCCCCCCCCCCC(=O)N(C)C(CO)C(=O)NC(C)C(=O)NCC(=O)N(C)C1C(=O)NC(C)C(=O)NC(C(=O)O)Cc2ccc(O)c(c2)-c2cc1ccc2OC1OC(C)C(O)C(O)C1O (stereo not shown) [Compound 6] | > 64 µg/mL | 8 µg/mL (≈ 8.01 µM) | 64 µg/mL (≈ 64.1 µM) | 0.11 µM | – | > 64 µg/mL | 6.6 µM | – | – | – |
| CC(C)CCCCCCCCCCC(=O)N(C)C(CO)C(=O)NC(C)C(=O)NCC(=O)N(C)C1C(=O)NC(C)C(=O)NC(C(=O)O)Cc2ccc(O)c(c2)-c2cc1ccc2OC1OC(C)C(O)C(O)C1O (stereo not shown) [Compound 7] | > 64 µg/mL | 16 µg/mL (≈ 16 µM) | > 64 µg/mL | 0.11 µM | – | > 64 µg/mL | 6.1 µM | – | – | 0.0504 µM |
| CC(C)CCCCCCCCCCC(=O)N(C)C(CO)C(=O)NC(C)C(=O)NCC(=O)N(C)C1C(=O)NC(C)C(=O)NC(C(=O)O)Cc2ccc(O)c(c2)-c2cc1cc(O)c2OC1OC(C)C(O)C(O)C1O (stereo not shown) [Compound 8] | > 64 µg/mL | 8 µg/mL (≈ 7.88 µM) | > 64 µg/mL | 0.11 µM | – | > 64 µg/mL | 24.9 µM | – | – | 0.11 µM |
